# According to patent US11352400B2, “PI3K gamma inhibitor peptide for treatment of respiratory system diseases” (Kither Biotech S.r.I., priority 2014, dated 2022):
# Experiments:
# [1] = tested on: hBSMCs; assay: Measurements of calcium transients (Indo-1) in hBSMCs; assay type: cell-based, human; settings: 50 μM, 30 minutes
# Method: Cells were washed with a Tyrode solution containing (in mmol/L): 5 HEPES, 154 NaCl, 4 KCl, 2 CaCl2, 1 MgCl2, 5.5 D-glucose, at pH 7.35 and placed on an inverted microscope. Cells were kept in Tyrode solution and treated with a KCl depolarizing solution containing (in mmol/L): 5 HEPES, 118 NaCl, 40 KCl, 2 CaCl2, 1 MgCl2, 5.5 D-glucose, at pH 7.35. Calcium transients were analyzed as the ratio of fluorescence signals measured at 400 nm and 490 nm following excitation of Indo-1-AM-loaded cells at 350 nm. Experiments were recorded and analyzed with Igor® Software, using the functions added by Jason Rothman (Neuromatic, www.thinkrandom.com).
# [2] = tested on: Cav1.2 subunit (Ser-1928) of the L-type calcium channel (LTCC); assay: Western blot of cAMP-dependent phosphorylation of Cav1.2 in hBSMCs; assay type: cell-based, human; settings: 50 μM, 30 minutes, vs vehicle or P1
# Method: (§1) For protein extraction from murine tracheal smooth muscle cells (mTSMCs) and human bronchial smooth muscle cells (hBSMCs), cells were treated with the indicated drugs/peptides and immediately lysed in cold lysis buffer containing 120 mmol/L NaCl, 50 mmol/L Tris-HCl (pH 8.0), complete protease inhibitors (Roche Applied Science, Indianapolis, Ind.) and phosphatase inhibitors (50 mmol/L sodium fluoride, 1 mmol/L sodium orthovanadate and 10 mmol/L sodium pyrophosphate). After 30 min of incubation on ice, lysates were centrifuged at 13000 rpm for 10 min at 4° C. and used for either Western blotting or subjected to immunoprecipitation and measurements of phosphodiesterase activity.
# [3] = tested on: PDE4B; assay: Phosphodiesterase activity in anti-PDE4B immunoprecipitates from treated tracheal smooth muscle cells; assay type: cell-based, mouse; settings: tracheal smooth muscle cells of wild-type mice (PI3Kγ+/+); 50 μM, 30 minutes
# Method: as §1, with “activity. […]” for “activity.”
# Phosphodiesterase activity in immunoprecipitates was measured according to the two-step method of Thompson and Appleman, as previously described (2), with minor modifications. […] The amount of radiolabeled adenosine in the supernatant was quantified by scintillation counting (Ultima Gold liquid scintillation from Perkin Elmer, Waltham, Mass.).
# Murine tracheal smooth muscle cells were cultured from explants of trachea using previously described methods with modifications. […] More than 90% of these cells were smooth muscle cells, as determined by immunofluorescence performed with an antibody specific for smooth muscle actin. […]
# [4] = tested on: ΔF508-CFTR; assay: Chloride currents in Ussing chamber, CuFi-1 cells; assay type: cell-based, human; settings: CuFi-1 cells corrected with VX-809 (20 μM, 24 hours); peptide 10 μM in the presence of VX-770 10 μM
# Method: Human airway epithelial cell lines expressing a wild-type CFTR (NuLi-1) or with the ΔF508 mutation (CuFi-1) were purchased from ATCC (NuLi-1 product code: ATCC® CRL-4011™; CuFi-1 product code: ATCC® CRL-4013™). Cells were cultured in Dulbecco's Modified Eagle Medium (DMEM, Gibco, Carlsbad, Calif.) supplemented with 10% fetal bovine serum (FBS), 30 μg/mL of penicillin, 100 μg/mL of streptomycin and 300 μg/mL hygromycin B (Gibco, Carlsbad, Calif.).
# To measure chloride currents in normal and ΔF508 primary human bronchial epithelial cells, cells were cultured on 1.12 cm^2 Snapwell inserts. Filters were mounted in Ussing chambers, and a chloride gradient was applied by incubating the cells in a basolateral high-chloride buffer containing (in mmol/L): 140 NaCl, 5 KCl, 0.36 K2HPO4, 0.44 KH2PO4, 1.3 CaCl2, 0.5 MgCl2, 4.2 NaHCO3, 10 HEPES, and 10 glucose, at pH 7.4 and an apical low-chloride buffer containing (in mmol/L): 133.3 Na-gluconate, 5 K-gluconate, 2.5 NaCl, 0.36 K2HPO4, 0.44 KH2PO4, 5.7 CaCl2, 0.5 MgCl2, 4.2 NaHCO3, 10 HEPES, and 10 mannitol, at pH 7.4. Buffers were aerated with a mixture of 95% O2 and 5% CO2 and the temperature was maintained at 37° C. during the experiment. […] After a stabilization period of 30 minutes, drugs were added at specific times, while the current was continuously recorded.
sequence,measurement,setting,value
RQIKIWFQNRRMKWKKGKATHRSPGQIHLVQRHPPSEESQAF (fusion peptide comprising SEQ ID No.1 and SEQ ID No.3) [Trojan peptide derived from PI3Kγ],influx of Ca2+ induced by KCl (through VOCCs),[1]; 40 mM KCl depolarizing solution,completely abolished
same,maximum peak of Ca2+ transients induced by carbachol,"[1]; carbachol 10 μM, vs vehicle or P1",significantly lower
same,cAMP-mediated phosphorylation of Cav1.2,[2],significantly higher
same,catalytic activity of PDE4B,[3],significantly reduced
same,increase of the CFTR currents over basal activity,[4],about 5 fold
